The values that follow come from paper PMC9920077, “Antimicrobial Natural Products from Plant Pathogenic Fungi” (Molecules, 2023).

pIC50: −log10 of the molar value. Converted amounts (≈) assume the structure as drawn. Where two headings read alike, the source gives them in different places.

The subject of data set [1] is C. neoformans ATCC 208821. Briefly: MIC against C. neoformans ATCC 208821, CO-ADD. It is filed as cell-based. Conditions: Cryptococcus neoformans. The source says:
(§1) Antimicrobial evaluation of the pure compounds against A. baumannii ATCC 19606, Candida albicans ATCC 90028, Cryptococcus neoformans ATCC 208821, E. coli ATCC 25922, K. pneumoniae ATCC 700603, P. aeruginosa ATCC 27853, and S. aureus ATCC 43300 (MRSA) was undertaken at the Community for Open Antimicrobial Drug Discovery at The University of Queensland (St. Lucia, Queensland, Australia) according to standard protocols as previously described.

Data set [2] concerns P. aeruginosa ATCC 27853. Put plainly: MIC against P. aeruginosa ATCC 27853, CO-ADD. Type of data set: cell-based. The following applies: Pseudomonas aeruginosa.
Source text: as §1

Data set [3] relates to E. coli ATCC 25922. Put plainly: MIC against E. coli ATCC 25922, CO-ADD. Type of data set: cell-based. The following applies: Escherichia coli.
Source text: as §1

Data set [4] concerns S. aureus ATCC 43300 (MRSA). Put plainly: MIC against S. aureus ATCC 43300 (MRSA), CO-ADD. Type of data set: cell-based, Staphylococcus aureus. Conditions: for MIC: Staphylococcus aureus, read-out: MIC S. a.
Source text: as §1

Data set [5] concerns C. albicans ATCC 90028. Briefly: MIC against C. albicans ATCC 90028, CO-ADD. Conditions: for MIC: Candida albicans. It is filed as cell-based, Candida albicans.
Source text: as §1

Data set [6] concerns Mycotypha microspora. Further details: method as in PMID 25312126. The following applies: cited from earlier work.
Data set [7] relates to Elymus repens. Further details: method as in PMID 25312126. The following applies: cited from earlier work.
Data set [8] has as its system A. baumannii ATCC 19606. Put plainly: MIC against A. baumannii ATCC 19606, CO-ADD. It is filed as cell-based. The following applies: Acinetobacter baumannii.
Source text: as §1

The test system of data set [9] is K. pneumoniae ATCC 700603. Briefly: MIC against K. pneumoniae ATCC 700603, CO-ADD. Conditions: Klebsiella pneumoniae. Type of data set: cell-based.
Source text: as §1

A short description of data set [10]: Cytotoxicity on HEK293 human embryonic kidney cells.
Protocol: (§2) All compounds were also evaluated for their cytotoxicity against human embryonic kidney cells (HEK-293) and any haemolytic activity against human red blood cells.
Data set [11] deals with B. subtilis. Further details: method as in PMID 19333565, doi:10.1590/S0100-40422007000700012. The following applies: cited from earlier work.
Data set [12] concerns Mycobacteria tuberculosis. Further details: method as in PMID 19333565, doi:10.1590/S0100-40422007000700012. The following applies: cited from earlier work.
Data set [13] has as its system S. aureus. On the set-up: method as in PMID 19333565, doi:10.1590/S0100-40422007000700012. The following applies: cited from earlier work.
Data set [14] concerns S. cerevisiae. Further details: method as in PMID 19333565, doi:10.1590/S0100-40422007000700012. The following applies: cited from earlier work.
For data set [15], the system named is Sclerotinia sclerotiorum. On the set-up: method as in PMID 19333565, doi:10.1590/S0100-40422007000700012. The following applies: cited from earlier work.
Data set [16] relates to human red blood cells. Briefly: Haemolytic activity on human red blood cells. Conditions: concentration of compound at 10% haemolytic activity on human red blood cells; mean of two experiments.
Data set [17] has as its system M. marinum BSG101. Put plainly: Antimycobacterial bioluminescence assay of pure compounds, M. marinum. The following applies: Mycobacterium marinum, BSG101, 72 h.
Protocol: Antimicrobial evaluation against M. abscessus and M. marinum was undertaken using in-house assays with the bioluminescent derivatives M. abscessus BSG301 [63] and M. marinum BSG101 [64]. […] Specifically, mycobacterial cultures were grown with shaking at 200 rpm in Middlebrook 7H9 broth (Fort Richard, Auckland, New Zealand) supplemented with 10% Middlebrook ADC enrichment media (Fort Richard, Auckland, New Zealand), 0.4% glycerol (Sigma-Aldrich, St. Louis, MO, USA), and 0.05% tyloxapol (Sigma-Aldrich, St. Louis, MO, USA). M. abscessus was grown at 37 °C and M. marinum at 28 °C. Cultures were grown until they reached the stationary phase (approximately 3–5 days for M. abscessus BSG301 and 7–10 days for M. marinum BSG101) and then diluted in MHB supplemented with 10% Middlebrook ADC enrichment media and 0.05% tyloxapol to give an optical density at 600 nm (OD600) of 0.001, which is the equivalent of ~10^6 bacteria per mL. Pure compounds were dissolved in DMSO and added to the wells of a black 96-well plate (Nunc, Thermo Scientific, Waltham, MA, USA) at doubling dilutions with a maximum concentration of 128 mg/mL. […] Bacterial luminescence was measured at regular intervals over 72 h using a Victor X-3 luminescence plate reader with an integration time of 1 s. […]
Data set [18] relates to E. coli. Further details: method as in PMID 4629229. The following applies: disk diffusion assays; cited from earlier work. A general note: Agar diffusion results depend on both activity and mobility in agar.
The test system of data set [19] is human red blood cells.
The subject of data set [20] is Microsporum gypseum. On the set-up: method as in PMID 4629229, PMID 9797310, PMID 19801865. Conditions: cited from earlier work.
The test system of data set [21] is Aspergillus fumigatus. Further details: method as in PMID 4629229, PMID 9797310, PMID 19801865. Conditions: cited from earlier work.
Data set [22] concerns HEK293 human embryonic kidney cells.
Protocol: as §2
In data set [23] the test system is Bacillus megaterium. Further details: method as in doi:10.1002/ejoc.200800404. Conditions: agar diffusion assay; cited from earlier work.
Data set [24] relates to E. coli. Further details: method as in doi:10.1002/ejoc.200800404. The following applies: agar diffusion assay; cited from earlier work.
The test system of data set [25] is Microbotryum violaceum. Further details: method as in doi:10.1002/ejoc.200800404. The following applies: agar diffusion assay; cited from earlier work.
Setting [26] is: ATCC208821, C. neoformans ATCC 208821, mean of two experiments, read-out: MIC C. n.
Setting [27] is: ATCC90028, C. albicans ATCC 90028, mean of two experiments, read-out: MIC C. a.
[28] abbreviates: ATCC27853, P. aeruginosa ATCC 27853, mean of two experiments, read-out: MIC P. a.
Where [29] appears, read: ATCC25922, E. coli ATCC 25922, mean of two experiments, read-out: MIC E. c.
The mark [30] stands for this setting: S. aureus ATCC 43300 (MRSA), mean of two experiments.
Setting [31] is: ATCC19606, A. baumanii ATCC 19606, mean of two experiments, read-out: MIC A. b.
Where [32] appears, read: ATCC700603, K. pneumoniae ATCC 700603, mean of two experiments, read-out: MIC K. p.

The term MIC denotes the smallest concentration in the dilution series that meets the test's criterion for growth inhibition. For the molecule `C/C=C/c1cc2c(c(=O)o1)C(=O)[C@@H](O)[C@H](C)O2` [compound 2, radicinin], the MIC in [1] (ATCC208821, read-out: MIC C. n) was > 135 µM; in data set [2] (ATCC27853, read-out: MIC P. a), > 135 µM; in data set [3] (ATCC25922, read-out: MIC E. c), > 135 µM; in data set [4], > 135 µM; in [5] (ATCC90028, read-out: MIC C. a) it was > 135 µM; in [8] (ATCC19606, read-out: MIC A. b), > 135 µM. In data set [9] (ATCC700603, read-out: MIC K. p), the MIC was > 135 µM. Also, the “antifungal activity against Mycotypha microspora” value in [6] was “moderate antifungal activity”. Further, the “antifungal activity against Elymus repens” value in data set [7] is “moderate antifungal activity”.
The term CC50 denotes the concentration that lowers cell viability or growth by half. Read a high CC50 as lower toxicity to the cells. With `C[C@H]1CCC/C=C/C(=O)c2c(O)cc(O)cc2CC(=O)O1` [compound 6, dehydro-curvularin], the MIC is > 110 µM in data set [1] (ATCC208821, read-out: MIC C. n); > 110 µM in data set [2] (ATCC27853, read-out: MIC P. a); > 110 µM in [3] (ATCC25922, read-out: MIC E. c); > 110 µM in data set [4]; > 110 µM in data set [5] (ATCC90028, read-out: MIC C. a); 32 µg/mL (≈ 110 µM) in [17]. Also, the minimal inhibitory concentration (MIC) in data set [8] (ATCC19606, read-out: MIC A. b) was > 110 µM; in data set [9] (ATCC700603, read-out: MIC K. p), > 110 µM. In data set [10], half-maximal cytotoxicity (CC50) was put at 1.27 µM. Moreover, the “antimicrobial activity against B. subtilis” value in data set [11] is “inactive”. Further, the “MIC against M. tuberculosis” value in data set [12] is 40 µM (≈ 11.6 µg/mL). Also, the “antimicrobial activity against Mycobacteria tuberculosis” value in data set [12] was “active”. The “antimicrobial activity against S. aureus” value in [13] was “inactive”. In data set [14], the “antimicrobial activity against S. cerevisiae” value was “inactive”. For the same molecule, the “antimicrobial activity against Sclerotinia sclerotiorum” value in data set [15] is “inactive”. Moreover, the HC10 in [16] was >110 µM.
`OC(Cn1cncn1)(Cn1cncn1)c1ccc(F)cc1F` [fluconazole, reference compound]: the MIC is 26 µM (≈ 7.96 µg/mL) in data set [1] (setting [26]) and 0.4 µM (≈ 0.123 µg/mL) in data set [5] (setting [27]).
`CN[C@H](CC(C)C)C(=O)N[C@H]1C(=O)N[C@@H](CC(N)=O)C(=O)N[C@H]2C(=O)N[C@H]3C(=O)N[C@H](C(=O)N[C@H](C(=O)O)c4cc(O)cc(O)c4-c4cc3ccc4O)[C@H](O)c3ccc(c(Cl)c3)Oc3cc2cc(c3O[C@@H]2O[C@H](CO)[C@@H](O)[C@H](O)[C@H]2O[C@H]2C[C@](C)(N)[C@H](O)[C@H](C)O2)Oc2ccc(cc2Cl)[C@H]1O` [vancomycin, reference compound]: in data set [4], the MIC amounted to 0.7 µM (≈ 1.01 µg/mL).
Regarding `CC1CCCCCC(=O)c2c(O)cc(O)cc2CC(=O)O1` (stereo not shown) [compound 5, curvularin], the MIC in data set [1] (setting [26]), in [2] (setting [28]), in data set [3] (setting [29]), in data set [4] (setting [30]), in [5] (setting [27]) and in data set [8] (setting [31]) was > 109 µM in each case. For the same molecule, the MIC in data set [9] (setting [32]) was > 109 µM. In addition, in data set [11], the “antimicrobial activity against B. subtilis” value is “inactive”. The “antimicrobial activity against Mycobacteria tuberculosis” value in [12] is “inactive”. Also, in [13], the “antimicrobial activity against S. aureus” value is “inactive”. Besides, the “antimicrobial activity against S. cerevisiae” value in data set [14] is “inactive”. Moreover, the “antimicrobial activity against Sclerotinia sclerotiorum” value in data set [15] is “inactive”. The “activity against E. coli” value in data set [18] is “none of the compounds were active”.
Turning to `COc1c(CC(C)O)c2c3c(CC(C)O)c(OC)c(=O)c4c(O)cc5c(c6c(cc(O)c(c1=O)c62)OCO5)c43` (stereo not shown) [compound 7, cercosporin], the minimal inhibitory concentration (MIC) is > 60 µM in [1] (setting [26]); > 60 µM in data set [2] (setting [28]); > 60 µM in [3] (setting [29]); ≤ 0.47 µM in data set [4] (setting [30]); > 60 µM in data set [5] (setting [27]); > 60 µM in [8] (setting [31]). For the same molecule, in data set [9] (setting [32]), the MIC is > 60 µM. For the same molecule, in [10], the CC50 worked out at 25.3 µM. Further, the “activity against MRSA” value in [4] (MRSA) was “potent activity”. Also, in data set [16], the HC10 is recorded as >60 µM. Moreover, in data set [19], the “haemolytic activity” value is reported as “not haemolytic”.
Take `C[C@H]1CCC/C=C/[C@@H]2C[C@H](O)C[C@H]2[C@H](O)/C=C/C(=O)O1` [compound 8, brefeldin A]: the MIC in [1] (setting [26]) is > 114 µM; in data set [2] (setting [28]), > 114 µM; in data set [3] (setting [29]), > 114 µM; in [4] (setting [30]), > 114 µM; in data set [5] (setting [27]) it was 57 µM (≈ 16 µg/mL); in data set [8] (setting [31]) it was > 114 µM. In addition, the MIC in data set [9] (setting [32]) is > 114 µM. Besides, the CC50 in [10] amounted to 0.89 µM. For the same molecule, the “activity against E. coli” value in data set [18] is “none of the compounds were active”. In data set [5] (C. albicans), the “antifungal activity against C. albicans” value is on record as “moderate antifungal activity”. Further, the HC10 in data set [16] was >114 µM. In addition, in [20], the “activity against Microsporum gypseum” value is “activity”. In addition, the “activity against Aspergillus fumigatus” value in [21] was “activity”.
The pIC50 is the IC50 on a negative log10 scale, so that one unit is a factor of ten. In data set [10] (HEK-293 human embryonic kidney cells), `CC/C(=C(\c1ccccc1)c1ccc(OCCN(C)C)cc1)c1ccccc1` [tamoxifen, reference compound] had a negative logarithm of the IC50 (pIC50) of 4.62.
With `CC(O)CCC(O)/C=C/C(=O)O` (stereo not shown) [compound 1, (E)-4,7-dihydroxyoct-2-enoic acid], the MIC in data set [1] (setting [26]), in data set [2] (setting [28]), in [3] (setting [29]), in data set [4] (setting [30]), in data set [5] (setting [27]) and in data set [8] (setting [31]) was > 184 µM in each case. For the same molecule, the MIC in data set [9] (setting [32]) is > 184 µM. The “cytotoxicity” value in [22] is reported as “no cytotoxic or haemolytic activity”.
Take `C[C@@H]1CCC(=O)CCC(=O)O[C@H](C)CC[C@H](O)/C=C/C(=O)O1` [compound 4, tetrahydropyrenophorin]: the MIC in data set [1] (setting [26]), in [2] (setting [28]), in data set [3] (setting [29]), in data set [4] (setting [30]), in data set [5] (setting [27]) and in data set [8] (setting [31]) was > 102 µM each time. In [9] (setting [32]), the MIC is > 102 µM. Also, the “antibacterial activity against Bacillus megaterium” value in data set [23] is “moderate antibacterial activity”. The “antibacterial activity against E. coli” value in data set [24] was “moderate antibacterial activity”. The “antifungal activity against Microbotryum violaceum” value in data set [25] is listed as “antifungal activity”.
In the case of `C/C1=C\C[C@]2(C)C(=O)C(O)=C([C@H](C)CO)[C@H]2C/C=C(\C)[C@@H](O)CC/C(C)=C/CC1` [compound 3, terpestacin], the MIC in data set [1] (setting [26]), in [2] (setting [28]), in data set [3] (setting [29]), in data set [4] (setting [30]), in data set [5] (setting [27]) and in data set [8] (setting [31]) was > 79 µM in each case. The MIC in data set [9] (setting [32]) was > 79 µM.
